Numbers after ± are expanded uncertainties.
Experiment: xn = mol fraction of the nth substance listed
Settings: 98 kPa, Liquid; for speed of sound: Frequency=3 MHz, Single path-length method; for mass density: Vibrating tube method

Cn1ccnc1 [1-methylimidazole] + CCO
Settings | mass density, 288.15 K [kg/m3] | mass density, 298.15 K [kg/m3] | mass density, 308.15 K [kg/m3] | speed of sound, 288.15 K [m/s] | speed of sound, 298.15 K [m/s] | speed of sound, 308.15 K [m/s]
x1 = 0.0511 | 812.59 ± 0.81 | 803.97 ± 0.81 | 795.24 ± 0.81 | 1210.6 ± 1.1 | 1176.2 ± 1.1 | 1141.9 ± 1.1
x1 = 0.1012 | 829.84 ± 0.81 | 821.16 ± 0.81 | 812.37 ± 0.81 | 1240.8 ± 1.1 | 1206.2 ± 1.1 | 1171.7 ± 1.1
x1 = 0.2006 | 861.64 ± 0.81 | 852.87 ± 0.81 | 844 ± 0.81 | 1296.9 ± 1.1 | 1261.9 ± 1.1 | 1227 ± 1.1
x1 = 0.3012 | 891.28 ± 0.81 | 882.45 ± 0.81 | 873.53 ± 0.81 | 1350 ± 1.1 | 1314.7 ± 1.1 | 1279.5 ± 1.1
x1 = 0.3955 | 916.81 ± 0.81 | 907.94 ± 0.81 | 899 ± 0.81 | 1396.8 ± 1.2 | 1361.2 ± 1.2 | 1325.7 ± 1.2
x1 = 0.5 | 942.71 ± 0.81 | 933.82 ± 0.81 | 924.87 ± 0.81 | 1445.7 ± 1.2 | 1409.8 ± 1.2 | 1373.8 ± 1.2
x1 = 0.5994 | 965.25 ± 0.81 | 956.36 ± 0.81 | – | 1489.5 ± 1.2 | 1453 ± 1.2 | 1416.7 ± 1.2
x1 = 0.7066 | 987.5 ± 0.81 | 978.61 ± 0.81 | – | 1533 ± 1.3 | 1496.1 ± 1.3 | 1459.3 ± 1.3
x1 = 0.8063 | 1006.58 ± 0.82 | 997.7 ± 0.82 | – | 1570.7 ± 1.3 | 1533.5 ± 1.3 | 1496.3 ± 1.3
x1 = 0.902 | 1023.35 ± 0.83 | 1014.49 ± 0.82 | – | 1603.2 ± 1.4 | 1565.8 ± 1.4 | 1528.4 ± 1.4
x1 = 0.9505 | 1031.47 ± 0.83 | 1022.63 ± 0.83 | – | 1619 ± 1.4 | 1581.5 ± 1.4 | 1544 ± 1.4
x1 = 1 | 1039.36 ± 0.83 | 1030.52 ± 0.83 | – | 1634.1 ± 1.4 | 1596.5 ± 1.4 | 1559 ± 1.4

— the NIST ThermoML archive (doi:10.1016/j.jct.2018.12.019)
